One series concerns Balb/C mice. Briefly: Asthma Protocol (ovalbumin sensitized and challenged mice, bronchoaveolar lavage). Format: in vivo, mouse. Particulars: sc, daily dosing at 100 mg/kg from day 0–13, lavage fluid. How it is done:
Balb/C mice (6–8 weeks old) are sensitized to ovalbumin (ova) (8 ug ova absorbed in 3.3 mg Alum inject) on days 0 and 5. On day 12, the mice were aerosol challenged with 0.5% ovalbumin dissolved in sterile saline for 1 hr in the AM, and then again in the PM (at least 4 hr apart). On day 14, the mice were anesthetized with ketamine/xylazine/acepromazine cocktail, exsanguinated, and then euthanized. Following blood collection, bronchoaveolar lavage was performed on each animal. Total cell counts were conducted on the lavage fluid, which was subsequently diluted with cell media 1:1. Slides of the lavage fluid were made by spinning the samples with a cytospin centrifuge. Slides were airdried and stained with x. Cell differentials of the lavage fluid were completed at the conclusion of the study. All compounds except Example 2 were well tolerated with no body weight loss throughout the course of the study. Statistical analysis involved ANOVA and Tukey-Kramer post hoc tests. Compounds were administered except where noted by subcutaneous injection once daily from day 0–13. The formulations used contained various mixtures of the following excipients (pharmasolve, cremophor RH 40, tween 80, PEG 300). See Biological Table 3

The subject of the next series is Male Lewis rats. Put plainly: Rheumatoid Arthritis Protocol (rat adjuvant arthritis, paw swelling). It counts as in vivo. The following applies: sq, bid. How it is done:
Male Lewis rats (150–175 g) from Charles River Laboratories were anesthetized on day 0 with 3–5% isoflurane anesthesia while the tail base was shaved and adjuvant mixture was injected. Fifty μL of adjuvant (10 mg/ml M. butyricum in mineral oil) was injected subcutaneously into two sites at the tail base. Paw swelling was monitored using a plethysmometer (UGO Basile), after shaving each leg to the level of the Achilles tendon to mark the level of immersion. A baseline paw measurement for both hindpaws was taken between d2-d5 and a second measurement was taken on day 7–8. Onset of paw swelling occurred rapidly between d9–11 and daily measurements were performed every weekday between d9 and day 15. Compounds of the invention and vehicles were dosed either prophylactically (d1–14), or therapeutically (d9–14) after swelling was confirmed. Solutions were injected subcutaneously or given orally by gavage 1–2 times per day. From day 0, rats were weighed every 2–3 days and overall health was monitored. Plasma drug levels, if desired, were measured in tail-vein derived blood samples taken on day 14. On day 15, blood samples were obtained by cardiac puncture, rats were euthanized with CO2, selected organs removed and both hindpaws were amputated and placed in 10% buffered formalin for histopathological analysis. See Biological Table 2.

A further series concerns VCAM-1. Briefly: In Vitro VCAM-1 Assay (TNF-α stimulated HAEC or HPAEC, cell ELISA). It counts as cell-based, human. The following applies: Homo sapiens, 16 h, TNF-α (1 ng/ml) stimulated HAEC or HPAEC, approximately 16 hours. The method in brief:
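Primary human aortic or pulmonary endothelial cells (below passage 9) stimulated with TNF-α (1 ng/ml) plus compound (four concentrations, ≤0.25% DMSO) for about 16 h. Surface VCAM-1 detected by cell ELISA (HRP/TMB, OD 450 nm). IC50 taken as the concentration giving 50% inhibition of the TNF-α-only response.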

What is called % Inhibition is the share of the control response that was lost under treatment. A word on the IC50: it is the concentration that inhibits the measured activity by half. Lower therefore signals greater potency in that assay. The melting point is the temperature of the solid-liquid transition.

Marks after values point to notes of the source that are not given here.

With `COc1cc(OC)c(-c2cc3ccccc3s2)cc1/C=C/C(=O)c1ccc(C(=O)O)cc1` [Example 3, 4-[3E-(5-Benzo[b]thien-2-yl-2,4-dimethoxyphenyl)-acryloyl]-benzoic acid], the “% Inhibition” value is 79% with Balb/C mice and 96% with Male Lewis rats (60 mg/Kg/day, d1–14).
As for `COc1cc(OC)c(-c2cccs2)cc1/C=C/C(=O)c1ccc(C(=O)O)cc1` [Example 6, 4-[3E-(2,4-Dimethoxy-5-thiophen-2-yl-phenyl)-acryloyl]-benzoic acid], the melting point is 213 to 216 °C. Further, the “% Inhibition” value in the series on Balb/C mice turned out to be 81%. Moreover, the “% Inhibition” value in the series with Male Lewis rats (60 mg/Kg/day, d1–14) came to 77%. This compound returned an IC50 in the series on VCAM-1 of less than 1 µM.
As for `COCCOCCOc1cc(OC)c(-c2cccs2)cc1/C=C/C(=O)c1ccc(C(=O)O)cc1` [Example 29, 4-(3E-{4-Methoxy-2-[2-(2-methoxyethoxy)ethoxy]-5-thiophen-2-yl-phenyl}-acryloyl)-benzoic Acid], the “% Inhibition” value in the series with Balb/C mice is reported as 24%; in the series with Male Lewis rats (60 mg/Kg/day, d1–14), 82%. The same compound displayed an IC50 in the series with VCAM-1 of less than 1 µM.
In turn, `COc1cc(OC)c(-c2cc3ccccc3n2C(=O)OC(C)(C)C)cc1/C=C/C(=O)c1ccc(C(=O)O)cc1` [Example 36, 2-{5-[3-(4-Carboxy-phenyl)-3-oxo-E-propenyl]-2,4-dimethoxy-phenyl}-indole-1-carboxylic acid tert-butyl ester] had a melting point of 182 to 183 °C. For the same compound, in the series on Balb/C mice, the “% Inhibition” value was 71%. In the series with VCAM-1, this compound returned a 50% inhibitory concentration (IC50) of less than 5 µM.
Take `COc1cc(OCCN2CCOCC2)c(/C=C/C(=O)c2ccc(C(=O)O)cc2)cc1-c1cccs1.Cl` [Example 60, 4-{3E-[4-Methoxy-2-(2-morpholin-4-yl-ethoxy)-5-thiophen-2-yl-phenyl]-acryloyl}-benzoic acid, hydrochloride]: the melting point is 255 °C (dec.). Besides, the “% Inhibition” value with Balb/C mice is reported as 36%. For the same compound, the “% Inhibition” value with Male Lewis rats (75 mg/kg/day, dl–14) is recorded as 62* %. The half-inhibitory concentration (IC50) with VCAM-1 is less than 1 µM.
`COc1cc(OCC(CO)CO)c(/C=C/C(=O)c2ccc(S(N)(=O)=O)cc2)cc1-c1cccs1` [Example 86, 4-{3E-[2-(3-Hydroxy-2-hydroxymethyl-propoxy)-4-methoxy-5-thiophen-2-yl-phenyl]-acryloyl}-benzenesulfonamide] registered a melting point of 123 to 124 °C. In addition, the “% Inhibition” value in the series with Balb/C mice is 48%. This compound also came in with an IC50 with VCAM-1 of less than 5 µM.
`COc1cc(OC)c(-c2cc3ccccc3s2)cc1/C=C/C(=O)c1ccc(C(C)=O)cc1` [Example 108, 1-(4-Acetyl-phenyl)-3E-(5-benzo[b]thiophen-2-yl-2,4-dimethoxy-phenyl)-propenone] yielded a melting point of 165 to 167 °C. The same compound yielded an IC50 with VCAM-1 of less than 10 µM.
Consider `COc1cc(OC)c(-c2nncn2CC(C)C)cc1/C=C/C(=O)c1ccc(C(=O)O)cc1` [Example 110, 4-{3E-[5-(4-Isobutyl-4H-[1,2,4]triazol-3-yl)-2,4-dimethoxy-phenyl]-acryloyl}-benzoic acid], for which the melting point is > 240 °C (dec.). In the series on VCAM-1, the IC50 is more than 10 µM.
`COc1cc(OC)c(-c2c[nH]c(C3CC3)n2)cc1/C=C/C(=O)c1ccc(S(N)(=O)=O)cc1` [Example 111, 4-{3E-[5-(2-Cyclopropyl-1H-imidazol-4-yl)-2,4-dimethoxy-phenyl]-acryloyl}-benzenesulfonamide] had a melting point of 156 to 160 °C. For the same compound, in the series with VCAM-1, the IC50 is more than 10 µM.
Regarding `COc1cc(OCc2nc3ccccc3[nH]2)c(/C=C/C(=O)c2ccc(S(N)(=O)=O)cc2)cc1-c1cccs1` [Example 113, 4-{3E-[2-(1H-Benzoimidazol-2-ylmethoxy)-4-methoxy-5-thiophen-2-yl-phenyl]-acryloyl}-benzenesulfonamide], the melting point is 235 to 237 °C (dec.). For the same compound, in the series with VCAM-1, the IC50 is less than 5 µM.
As for `COc1cc(OCc2ccccn2)c(/C=C/C(=O)c2ccc(S(N)(=O)=O)cc2)cc1-c1cccs1` [Example 114, 4-{3E-[4-Methoxy-2-(pyridin-2-ylmethoxy)-5-thiophen-2-yl-phenyl]-acryloyl}-benzenesulfonamide], the melting point was in the range of 188 to 189 °C. Moreover, in the series with VCAM-1, the half-maximal inhibitory concentration (IC50) was less than 5 µM.
Regarding `COc1cc(OCn2nnc3ccccc32)c(/C=C/C(=O)c2ccc(S(N)(=O)=O)cc2)cc1-c1cccs1` [Example 115, 4-{3E-[2-(Benzotriazol-1-ylmethoxy)-4-methoxy-5-thiophen-2-yl-phenyl]-acryloyl}-benzenesulfonamide], the melting point is 255 °C (dec.). This compound displayed an IC50 in the series on VCAM-1 of less than 5 µM.
Regarding `COc1cc(OC)c(-c2cc3ccccc3n2C)cc1/C=C/C(=O)c1ccc(S(N)(=O)=O)cc1` [Example 117, 4-{3E-[2,4-Dimethoxy-5-(1-methyl-1H-indol-2-yl)-phenyl]-acryloyl}-benzenesulfonamide], the melting point lay in the range of 148 to 150 °C. In the series with VCAM-1, this compound yielded an IC50 of less than 5 µM.
Consider `COC(=O)c1ccc(C(=O)/C=C/c2cc(-c3cc4ccccc4s3)c(OC)cc2OC)cc1` [Example 118, 4-[3E-(5-Benzo[b]thiophen-2-yl-2,4-dimethoxy-phenyl)-acryloyl]-benzoic acid methyl ester], for which the melting point lay within 149 to 151 °C. Moreover, the IC50 in the series on VCAM-1 was less than 10 µM.

The values above are taken from patent publication US7094801B2, “Chalcone derivatives and their use to treat diseases” (Atherogenics, Inc., priority 2001, dated 2006).
